# Columns and labels:
# [1] = tested on: isolated CNS of pharate 5th instar larvae; test: Electrophysiology: extracellular motor bursts recorded in nerves of abdominal ganglia of the isolated intact or desheathed CNS; parameters: species or system Bombyx mori; settings: for ecdysis burst pattern, CCAP or MIPs applied alone: CCAP alone n = 4, MIP-I only or MIP-I-VII mixture n = 5; for time to burst patterns characteristic for pre-ecdysis I and II in dorsal and ventral nerves: isolated nerve cords
# Experimental: Specific roles of various neuropeptides produced by the ETHR neurons were determined using electrophysiology technique in the isolated intact or desheathed CNS. Sharp forceps were used to remove the neurolema on the dorsal or ventral side of selected ganglia under physiological saline (see above) and dorsal or ventral nerves of the abdominal ganglia (AG1-7) were attached to plastic suction electrodes. A mixture or individual neuropeptides were then applied in a 300 μl saline bath and induced extracellular motor bursts were recorded using differential AC amplifier 1700 (A-M Systems, Carlsborg, WA, USA) and Axoscope program (Axon Instruments, Union City, CA, USA). Synthetic peptides used in the assay are listed in Supplementary Table S2 online. A mixture of MIPs was adjusted according to its copy number in the precursor: MIP-I (five copies), MIP-II,V (two copies), MIP-III,IV,VI,VII (one copy each)[28].
# [2] = tested on: ETHR-A (BNGR-A6-A); test: Aequorin-based calcium mobilization assay, ETHR-A transiently expressed in CHO-K1 cells; format: cell-based, Bombyx mori
# Experimental: Pharmacological characterization of ETHR-A (BNGR-A6-A) and ETHR-B (BNGR-A6-B) receptors were carried out in the Chinese hamster ovary (CHO-K1) cells. For expression in CHO-K1 cells, the entire open reading frame for each ETHR was inserted into pcDNA3.1 ( +) vector (Invitrogen, Carlsbad, CA, USA) with a mammalian Kozak translation initiation sequence incorporated at 5´ end and confirmed by DNA sequencing prior to use. The primers used to clone BNGR-A6-A and BNGR-A6-B are listed in Supplementary Table S1 online. For the assay, each receptor was expressed together with the bioluminescent calcium-sensitive reporter aequorin and chimeric Gqs alpha subunit protein that couples receptor activation to the phospholipase C and intracellular Ca^2+ mobilization. […]
# The procedures used for the receptor assays were described previously. […] Following cell application to a well, emitted luminescence corresponding to the ligand-induced intracellular Ca^2+ release was monitored in 0.5 s intervals for 20 s using the GloMax-Multi Detection System (Promega, Madison, WI, USA). […] All experiments were replicated three times and collected output data calculated and further analyzed in Excel (Microsoft, Redmond, WA, USA) and GraphPad Prism 6 software (GraphPad Software Inc.). The concentration-dependent response curves, as well as the corresponding EC50 values were calculated using the Prism software. […]
# [3] = tested on: pharate larvae; test: ETH injection into pharate larvae, ecdysis behavior; format: in vivo, Bombyx mori; settings: pharate larvae injected with ETH at 8–15 h prior to ecdysis; fail to shed the old cuticle
# Experimental: Under normal conditions, the ecdysis behavior lasts for ∼10 min and terminates immediately after the old cuticle is completely shed from the last abdominal segment. However, pharate larvae injected with ETH at 8–15 h prior to ecdysis fail to shed the old cuticle and show strong ecdysis contractions for 1–2 h. […] To determine a site of sensory input that terminates the ecdysis behavior, we peeled off a narrow ring of the old cuticle on abdominal segments 1, 3, 5 or 6 of late pharate 5th instar larvae 1–3 h prior to ecdysis. These larvae invariably initiated normal pre-ecdysis behaviors at the expected time and after ∼1 h switched to peristaltic waves of ecdysis contractions. […] In spite of presence of the old cuticle on the head, thorax and anterior abdomen, strong ecdysis contractions ceased immediately after the posterior cuticle was shed from the last abdominal segment in all larvae (n = 14).
substance,measurement,setting,value
AWQDLNSAWa [MIP-I],"ecdysis burst pattern, CCAP or MIPs applied alone",[1]; desheathed CNS,weak prolonged synchronous bursts or no rhythmic pattern
"GQSNNNRGRVLRCFFNAVTCF-OH [AST-CC, allatostatin CC, allatostatin CC of Bombyx mori]",time to onset of ecdysis bursts,"[1]; desheathed CNS dissected 2–6 h prior to ecdysis, 0,3–1 μM, n = 14",5 to 12 min
same,response (ecdysis motor pattern) of earlier pharate or feeding stages,"[1]; desheathed CNS, 0,3–1 μM, n = 9",irresponsive
"NADLINSLLALPKDMNDAa [PDF, pigment dispersing factor, pigment dispersing factor of Bombyx mori]",time to onset of pre-ecdysis II bursts (asynchronous motoneuron activity) in ventral nerves of AG2-7,"[1]; desheathed CNS, 0.3–1 μM, n = 8",3 to 5 min
"PFCNAFTGCa [CCAP, crustacean cardioactive peptide]","ecdysis burst pattern, CCAP or MIPs applied alone",[1]; desheathed CNS,less effective
"SFIKPN.NVPRVa [PETH, pre-ecdysis triggering hormone, pre-ecdysis triggering hormone from B. mori, synthetic peptide]",EC50,"[2]; CHO-K1 cells co-expressing aequorin and chimeric Gqs alpha subunit, luminescence as % of maximum peak, mean of n = 3, read-out: EC50, BomETHR-A",9.43 nM
same,fold lower sensitivity of ETHR-A to PETH than to ETH,[2]; from concentration-response curves in CHO cells,~ 20 fold
same,time to burst patterns characteristic for pre-ecdysis I and II in dorsal and ventral nerves,"[1]; 0.3–1 μM, n = 14",5 to 7 min
"SNEAISPFDQGMMGYVIKTNKNIPRMa [ETH, ecdysis triggering hormone, ecdysis triggering hormone from B. mori, synthetic peptide]",duration of strong ecdysis contractions,[3],1 to 2 h
same,time to initiation of clear ecdysis bursts after ETH,"[1]; desheathed CNS activated by ETH, n = 10",27 to 35 min
same,duration of pre-ecdysis before switch to ecdysis motor patterns (ecdysis activation),"[1]; isolated CNS of pharate larvae treated with ETH, dorsal nerves AG4-7",~ 40 min
same,time to burst patterns characteristic for pre-ecdysis I and II in dorsal and ventral nerves,"[1]; 0.3–1 μM, n = 14",5 to 7 min

# Reference: publication PMC8175484, “Identification and function of ETH receptor networks in the silkworm Bombyx mori” (Scientific Reports, 2021)
